In one experiment the target is GSK3α (Homo sapiens, UniProt P49840). Put plainly: GSK3α kinase assay (Caliper LabChip, fluoresceinated peptide substrate). It counts as biochemical. The protocol: (§1) The kinase assay was performed in V-bottom 384-well plates. […] The reaction was incubated at room temperature for 20 hours and terminated by adding 45 μl of 35 mM EDTA to each sample. The reaction mixture was analyzed on the Caliper LabChip3000 (Caliper, Hopkinton, Mass.) by electrophoretic separation of the unphosphorylated substrate and phosphorylated product. […] Compounds were dissolved at 10 mM in dimethylsulfoxide (DMSO) and evaluated at eleven concentrations. IC50 values were derived by non-linear regression analysis.

The next experiment relates to pTau. Put plainly: pTau assay (no method described). It counts as cell-based.
In another experiment the target is GSK3β (Homo sapiens, UniProt P49841). Put plainly: GSK3β kinase assay (Caliper LabChip, fluoresceinated peptide substrate). It counts as biochemical. The protocol: as §1
[1] abbreviates: first value of the cell, 250 pM enzyme, 20 uM ATP, 20 hours at room temperature, read-out: GSK3β/α (nM): GSK3β IC50.

SMILES strings stand for the structures. Like-named read-outs stand apart in the source and are kept apart here.

Chain of GSK3β (P49841 whole entry, species assumed): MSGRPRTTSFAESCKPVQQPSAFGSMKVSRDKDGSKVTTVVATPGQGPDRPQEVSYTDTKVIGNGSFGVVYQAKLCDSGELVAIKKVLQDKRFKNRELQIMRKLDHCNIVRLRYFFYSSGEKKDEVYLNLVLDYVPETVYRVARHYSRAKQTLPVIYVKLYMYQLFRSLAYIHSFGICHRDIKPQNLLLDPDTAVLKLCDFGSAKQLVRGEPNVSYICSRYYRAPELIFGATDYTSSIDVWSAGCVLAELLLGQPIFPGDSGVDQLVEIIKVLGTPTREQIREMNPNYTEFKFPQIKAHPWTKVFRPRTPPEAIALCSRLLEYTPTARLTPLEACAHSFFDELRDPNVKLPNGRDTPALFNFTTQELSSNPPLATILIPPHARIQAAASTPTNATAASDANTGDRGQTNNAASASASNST
Chain of GSK3α (P49840 whole entry, species assumed): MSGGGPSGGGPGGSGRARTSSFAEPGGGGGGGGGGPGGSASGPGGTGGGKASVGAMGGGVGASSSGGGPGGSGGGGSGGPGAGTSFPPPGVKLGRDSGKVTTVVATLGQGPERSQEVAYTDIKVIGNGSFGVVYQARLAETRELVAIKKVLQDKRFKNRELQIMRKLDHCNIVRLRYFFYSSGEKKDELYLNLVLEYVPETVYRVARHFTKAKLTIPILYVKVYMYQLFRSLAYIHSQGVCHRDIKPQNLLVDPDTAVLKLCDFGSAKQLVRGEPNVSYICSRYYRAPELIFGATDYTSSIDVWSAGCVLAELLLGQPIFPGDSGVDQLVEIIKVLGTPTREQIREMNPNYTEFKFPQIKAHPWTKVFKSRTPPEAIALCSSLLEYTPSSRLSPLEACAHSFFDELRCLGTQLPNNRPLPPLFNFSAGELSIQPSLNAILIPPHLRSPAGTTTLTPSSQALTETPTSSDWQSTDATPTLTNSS

In the case of `O=C(Nc1cnccc1-c1ccccc1)c1ccnc(Nc2ccccn2)c1` [Example 1, N-(4-Phenylpyridin-3-yl)-2-(pyridin-2-ylamino)isonicotinamide], the IC50 against GSK3α worked out at 2.6 nM; in the experiment on pTau it was 213 nM; at GSK3β (setting [1]) it was 3.4 nM.

Take `O=C(Nc1cnccc1-c1ccccc1)c1ccnc(Nc2cccc(C(F)(F)F)n2)c1` [Example 2, N-(4-Phenylpyridin-3-yl)-2-((6-(trifluoromethyl)pyridin-2-yl)amino)isonicotinamide]: the IC50 against GSK3α worked out at 7.3 nM; in the experiment with pTau, 574 nM; at GSK3β (setting [1]) it was 6.8 nM.

As to `O=C(Nc1cnccc1-c1ccccc1)c1ccnc(Nc2cc(C(F)(F)F)ccn2)c1` [Example 3, N-(4-Phenylpyridin-3-yl)-2-((4-(trifluoromethyl)pyridin-2-yl)amino)isonicotinamide], the IC50 was 8.7 nM at GSK3α (second value of the cell, 250 pM enzyme, 20 uM ATP, 20 hours at room temperature, read-out: GSK3β/α (nM): GSK3α IC50); 705 nM in the experiment with pTau; 9 nM against GSK3β.

For the compound `Cc1ccc(Nc2cc(C(=O)Nc3cnccc3-c3ccccc3)ccn2)nc1` [Example 5, 2-((5-Methylpyridin-2-yl)amino)-N-(4-phenylpyridin-3-yl)isonicotinamide], the IC50 turned out to be 4.8 nM on GSK3α, 183 nM in the experiment with pTau and 0.77 nM on GSK3β (setting [1]).

With `Cc1ccnc(Nc2cc(C(=O)Nc3cnccc3-c3ccccc3)ccn2)c1` [Example 6, 2-((4-Methylpyridin-2-yl)amino)-N-(4-phenylpyridin-3-yl)isonicotinamide], the values for the IC50 against GSK3α, in the experiment on pTau and at GSK3β (setting [1]) were 1.3 nM, 164 nM and 1.1 nM, respectively.

`O=C(Nc1cnccc1-c1ccccc1)c1ccnc(Nc2cccc(F)n2)c1` [Example 7, 2-((6-Fluoropyridin-2-yl)amino)-N-(4-phenylpyridin-3-yl)isonicotinamide]: the IC50 came out at 5.9 nM at GSK3α, 249 nM in the experiment on pTau and 8.5 nM at GSK3β (setting [1]).

For the compound `O=C(Nc1cnccc1-c1ccccc1)c1ccnc(Nc2ccc(F)cn2)c1` [Example 8, 2-((5-Fluoropyridin-2-yl)amino)-N-(4-phenylpyridin-3-yl)isonicotinamide], the IC50 against GSK3α was determined as 1.9 nM; in the experiment on pTau, 132 nM; at GSK3β (setting [1]) it was 4.1 nM.

Take `Cc1cc(Nc2cc(C(=O)Nc3cnccc3-c3ccccc3)ccn2)ncc1F` [Example 9, 2-((5-Fluoro-4-methylpyridin-2-yl)amino)-N-(4-phenylpyridin-3-yl)isonicotinamide]: the IC50 against GSK3α worked out at 2.5 nM; with pTau, 110 nM; at GSK3β (setting [1]), 4.1 nM.

Regarding `O=C(Nc1cnccc1C1CCCCO1)c1ccnc(Nc2ccc(C(F)(F)F)cn2)c1` (stereo not shown) [Example 41, N-(4-(Tetrahydro-2H-pyran-2-yl)pyridin-3-yl)-2-((5-(trifluoromethyl)pyridin-2-yl)amino)isonicotinamide], the IC50 with pTau worked out at 120 nM; at GSK3β (setting [1]), 13 nM.

`O=C(Nc1cnccc1-c1ccccn1)c1ccnc(Nc2ccc(C(F)(F)F)cn2)c1` [Example 43, N-([2,4′-Bipyridin]-3′-yl)-2-((5-(trifluoromethyl)pyridin-2-yl)amino)isonicotinamide]: the IC50 came to 0.59 nM at GSK3α and 0.77 nM on GSK3β (setting [1]).

For `O=C(Nc1cnc(F)cc1OCC(F)(F)F)c1ccnc(Nc2ccc(C(F)(F)F)cn2)c1` [Example 69, N-(6-Fluoro-4-(2,2,2-trifluoroethoxy)pyridin-3-yl)-2-((5-(trifluoromethyl)pyridin-2-yl)amino)isonicotinamide], the IC50 in the experiment with pTau was found to be 165 nM; at GSK3β (setting [1]) it was 2.6 nM.

With `Cc1cc(C2(C3CC3)OCCO2)c(NC(=O)c2ccnc(Nc3ccc(C(F)(F)F)cn3)c2)cn1` [Example 105, N-(4-(2-Cyclopropyl-1,3-dioxolan-2-yl)-6-methylpyridin-3-yl)-2-((5-(trifluoromethyl)pyridin-2-yl)amino)isonicotinamide], the IC50 with pTau was found to be 2 nM.

Regarding `N#Cc1cnn(-c2cncc(NC(=O)c3ccnc(Nc4ccc(C(F)(F)F)cn4)c3)c2)c1` [Example 118, N-(5-(4-Cyano-1H-pyrazol-1-yl)pyridin-3-yl)-2-((5-(trifluoromethyl)pyridin-2-yl)amino)isonicotinamide], the IC50 with pTau is 360 nM; on GSK3β (setting [1]), 7.3 nM.

Consider `CCc1nc(Nc2cc(C(=O)Nc3cncc(-c4ccccc4F)c3)ccn2)ccc1C#N` [Example 148, 2-((5-Cyano-6-ethylpyridin-2-yl)amino)-N-(5-(2-fluorophenyl)pyridin-3-yl)isonicotinamide], for which the IC50 with pTau came out at 360 nM; at GSK3β (setting [1]), 4.5 nM.

Consider `COC(=O)c1cccc(Nc2cc(C(=O)Nc3cncc(-c4ccccc4F)c3)ccn2)n1` [Example 149, Methyl 6-((4-((5-(2-fluorophenyl)pyridin-3-yl)carbamoyl)pyridin-2-yl)amino)picolinate], for which the IC50 in the experiment on pTau came to 1700 nM; on GSK3β (setting [1]) it was 2.7 nM.

`O=C(Nc1cncc(-c2ccccc2F)c1)c1ccnc(Nc2cccc(Cl)n2)c1` [Example 150]: the IC50 in the experiment with pTau came to 1100 nM; at GSK3β (setting [1]), 3.5 nM.

As to `NC(=O)c1ccc(Nc2cc(C(=O)Nc3cncc(-c4ccccc4F)c3)ccn2)nc1` [Example 160, 6-((4-((5-(2-Fluorophenyl)pyridin-3-yl)carbamoyl)pyridin-2-yl)amino)nicotinamide], the IC50 against GSK3α is 7.6 nM; on GSK3β (setting [1]), 16 nM.

Turning to `COC(=O)/C=C/c1ccc(Nc2cc(C(=O)Nc3cncc(-c4ccccc4F)c3)ccn2)nc1` [Example 161], the figures for the IC50 against GSK3α and at GSK3β (setting [1]) were 8 nM and 23 nM, respectively.

For `N#Cc1ccc(-c2cncc(NC(=O)c3ccnc(Nc4cccc(C#N)n4)c3)c2)cc1` [Example 162, N-(5-(4-Cyanophenyl)pyridin-3-yl)-2-((6-cyanopyridin-2-yl)amino)isonicotinamide], the IC50 on GSK3α is 2.4 nM; at GSK3β it was 3.5 nM.

As for `O=C(Nc1cnccc1OCC(F)(F)F)c1cc(Nc2ccc(C(F)(F)F)cn2)ncc1F` [Example 168, 5-Fluoro-N-(4-(2,2,2-trifluoroethoxy)pyridin-3-yl)-2-((5-(trifluoromethyl)pyridin-2-yl)amino)isonicotinamide], the IC50 was found to be 0.73 nM against GSK3α and 1.5 nM on GSK3β (setting [1]).

In the case of `CC(C)[S+]([O-])c1ccncc1NC(=O)c1ccnc(Nc2ccc(C(F)(F)F)cn2)c1` (stereo not shown) [Example 179, N-(4-(isopropylsulfinyl)pyridin-3-yl)-2-((5-(trifluoromethyl)pyridin-2-yl)amino)isonicotinamide], the IC50 at GSK3α stood at 1.2 nM; on GSK3β (setting [1]), 4.3 nM.

Regarding `CS(=O)(=O)c1ccncc1NC(=O)c1ccnc(Nc2ccc(C(F)(F)F)cn2)c1` [Example 181, N-(4-(Methylsulfonyl)pyridin-3-yl)-2-((5-(trifluoromethyl)pyridin-2-yl)amino)isonicotinamide], the IC50 worked out at 0.77 nM on GSK3α and 1.2 nM at GSK3β (setting [1]).

For `C=CCOc1ccc(-c2cnncc2NC(=O)c2ccnc(Nc3ccc(C(F)(F)F)cn3)c2)cc1` [Example 199, N-(5-(4-(Allyloxy)phenyl)pyridazin-4-yl)-2-((5-(trifluoromethyl)pyridin-2-yl)amino)isonicotinamide], the figures for the IC50 in the experiment on pTau and on GSK3β (setting [1]) were 470 nM and 8.7 nM, respectively.

Turning to `O=C(Nc1cnncc1C(=O)C1CC1)c1ccnc(Nc2ccc(C(F)(F)F)cn2)c1` [Example 202, N-(5-(Cyclopropanecarbonyl)pyridazin-4-yl)-2-((5-(trifluoromethyl)pyridin-2-yl)amino)isonicotinamide], the IC50 against GSK3α amounted to 1.1 nM; on GSK3β (setting [1]) it was 2.9 nM.

The record behind these values is patent US9718804B2, “GSK-3 inhibitors” (BRISTOL-MYERS SQUIBB COMPANY, priority 2013, dated 2017).
